Laboratory results: patent publication US9556159B2, “Renin inhibitor” (MITSUBISHI TANABE PHARMA CORPORATION, priority 2012, dated 2017)

Each compound was assayed against T1, Recombinant human renin (Homo sapiens, UniProt P00797) (assay: Inhibitory activity against human renin (fluorogenic peptide substrate)). Settings: 50% inhibitory concentration (IC50) against human renin, 37° C. for 1 hour.
T1 sequence (P00797 67-406): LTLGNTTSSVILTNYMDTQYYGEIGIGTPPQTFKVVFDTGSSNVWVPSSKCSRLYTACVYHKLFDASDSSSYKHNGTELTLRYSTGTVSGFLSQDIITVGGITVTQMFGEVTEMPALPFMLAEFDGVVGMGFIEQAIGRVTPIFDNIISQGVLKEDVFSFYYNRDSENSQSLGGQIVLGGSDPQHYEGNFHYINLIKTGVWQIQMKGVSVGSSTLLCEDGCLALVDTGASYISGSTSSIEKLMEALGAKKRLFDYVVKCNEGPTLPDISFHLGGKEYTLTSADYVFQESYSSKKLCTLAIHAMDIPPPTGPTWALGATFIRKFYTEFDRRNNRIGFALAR
Type: biochemical
In the case of `COC(=O)NCCCc1cc([C@H](C)N(C(=O)[C@H]2CNCCO2)C2CC2)cnc1C1CCOCC1` [Example 317], the IC50 is reported as 0.6 nM.
`COC(=O)NCCCn1cc([C@H](C)N(C(=O)[C@H]2CN[C@@H](CC(F)F)CO2)C2CC2)nc1C1CCOCC1` [Example 318] was tested, and the IC50 was 1.3 nM.
With `COC(=O)NCCCn1cc([C@@H](C)N(C(=O)[C@H]2CNCCO2)C2CC2)nc1C(F)(F)F` [Example 319] the IC50 was 3.5 nM.
With `COC[C@@H]1CNC[C@H](C(=O)N(C2CC2)[C@H](C)c2cn(CCCNC(=O)OC)c(C(F)(F)F)n2)O1` [Example 320] the IC50 was 3.2 nM.
Compound `COC(=O)NCCCc1cc([C@H](C)N(C(=O)[C@H]2CNC[C@@H](CN(C)C)O2)C2CC2)cc(OC)n1` [Example 321] has an IC50 of 5.6 nM.
`COC[C@H]1CO[C@@H](C(=O)N(C2CC2)[C@@H](C)c2cn(CCCNC(=O)OC)c(C3CCOCC3)n2)CN1` [Example 322] was tested, and the IC50 was 1.5 nM.
With `COC[C@H]1CO[C@@H](C(=O)N(C2CC2)[C@@H](C)c2cc(C3CCOCC3)n(CCCNC(=O)OC)n2)CN1` [Example 323] the IC50 was 2 nM.
Work on `COC[C@@H]1CNC[C@H](C(=O)N(C2CC2)[C@H](C)c2cc(CCCNC(=O)OC)nc(C(F)(F)F)c2)O1` [Example 324] yielded an IC50 of 0.6 nM.
Work on `COC(=O)NCCCc1cc([C@@H](C)N(C(=O)[C@H]2CNCCO2)C2CC2)cc(C(F)(F)F)n1` [Example 325] yielded an IC50 of 0.7 nM.
For `COC(=O)NCCCn1nc([C@H](C)N(C(=O)[C@H]2CNCCO2)C2CC2)cc1OC(C)C` [Example 326], the IC50 was 0.4 nM.
In the case of `COC[C@H]1CO[C@@H](C(=O)N(C2CC2)[C@@H](C)c2nn(CCCNC(=O)OC)c(C3CCOCC3)c2C)CN1` [Example 327], the IC50 is reported as 2.9 nM.
`COC[C@H]1CO[C@@H](C(=O)N(C2CC2)[C@@H](C)c2nn(CCCNC(=O)OC)c(C3CCOCC3)c2F)CN1` [Example 328] showed an IC50 of 1.1 nM.
Work on `CCc1cc([C@H](C)N(C(=O)[C@H]2CNC[C@@H](COC)O2)C2CC2)cc(CCCNC(=O)OC)n1` [Example 329] yielded an IC50 of 0.8 nM.
`COC[C@@H]1CNC[C@H](C(=O)N(C2CC2)[C@@H](C)c2nn(CCCNC(=O)OC)c(C3CCOCC3)c2F)O1` [Example 330] was tested, and the IC50 was 0.3 nM.
With `COC[C@H]1CO[C@@H](C(=O)N(C2CC2)[C@@H](C)c2cc(OC(C)C)n(CCCNC(=O)OC)n2)CN1` [Example 331] the IC50 was 2.3 nM.
For `COC(=O)NCCCn1nc([C@@H](C)N(C(=O)[C@H]2CN[C@@H](CCF)CO2)C2CC2)c2ccc(C)nc21` [Example 332], the IC50 was 0.4 nM.
`COC(=O)NCCCn1cc([C@H](C)N(C(=O)[C@H]2CNC[C@@H](C)O2)C2CC2)nc1C1CCCCC1` [Example 333] showed an IC50 of 0.3 nM.
`COC(=O)NCCCc1cc([C@H](C)N(C(=O)[C@H]2CNC[C@@H](COc3ccccc3)O2)C2CC2)nn1C1CCOCC1` [Example 334] was tested, and the IC50 was 0.3 nM.
`COC(=O)NCCCn1cc([C@H](C)N(C(=O)[C@H]2CN[C@@H](C)CO2)C2CC2)nc1C1CCCCC1` [Example 335] showed an IC50 of 0.9 nM.
`CC[C@H]1CO[C@@H](C(=O)N(C2CC2)[C@@H](C)c2cn(CCCNC(=O)OC)c(OC(C)C)n2)CN1` [Example 336] gave an IC50 of 1.6 nM.
In the case of `COC[C@@H]1CNC[C@H](C(=O)N(C2CC2)[C@@H](C)c2nn(CCCNC(=O)OC)c(-c3ccccn3)c2C)O1` [Example 337], the IC50 is reported as 1.2 nM.
`COC[C@H]1CO[C@@H](C(=O)N(C2CC2)[C@@H](C)c2nn(CCCNC(=O)OC)c(-c3ccccn3)c2C)CN1` [Example 338] gave an IC50 of 5.3 nM.
With `COC(=O)NCCCn1cc([C@H](C)N(C(=O)[C@H]2CNC[C@@H](COCc3ccccc3)O2)C2CC2)nc1C1CCOCC1` [Example 339] the IC50 was 0.4 nM.
For `COC(=O)NCCCc1cc([C@H](C)N(C(=O)[C@H]2CNC[C@@H](CF)O2)C2CC2)nn1C1CCOCC1` [Example 340], the IC50 was 0.7 nM.
For `COC(=O)NCCCn1cc([C@H](C)N(C(=O)[C@H]2CN[C@@H](CCF)CO2)C2CC2)nc1OC(C)C` [Example 341], the IC50 was 0.3 nM.
`COC(=O)NCCCc1cc([C@@H](C)N(C(=O)[C@H]2CNC[C@@H](C)O2)C2CC2)cc(C2CC2)n1` [Example 342] showed an IC50 of 0.4 nM.
Work on `COC(=O)NCCCc1nc(C(C)N(C(=O)[C@H]2CNCCO2)C2CC2)c(C)n1-c1ccccc1` (stereo partly drawn) [Example 343] yielded an IC50 of 5.3 nM.
For `COC(=O)NCCCc1cc([C@@H](C)N(C(=O)[C@H]2CNC[C@@H](C)O2)C2CC2)nn1-c1cccc(C)c1` [Example 344], the IC50 was 0.4 nM.
Work on `COC(=O)NCCCc1cc([C@@H](C)N(C(=O)[C@H]2CNC[C@@H](C)O2)C2CC2)nn1-c1ccccc1C` [Example 345] yielded an IC50 of 0.4 nM.
For `COC(=O)NC/C=C/c1cc([C@@H](C)N(C(=O)[C@H]2CNC[C@@H](C)O2)C2CC2)nn1-c1cccc(Cl)c1` [Example 346], the IC50 was 1.3 nM.
For `COC(=O)NCCCc1cc([C@@H](C)N(C(=O)[C@H]2CNC[C@@H](C)O2)C2CC2)nn1-c1cccc(F)c1F` [Example 347], the IC50 was 0.7 nM.
For `COC(=O)NCCCc1cc([C@@H](C)N(C(=O)[C@H]2CNCCO2)C2CC2)nn1-c1cccc(C(F)(F)F)c1` [Example 348], the IC50 was 0.7 nM.
Compound `COC(=O)NCCCc1cc([C@@H](C)N(C(=O)[C@H]2CNC[C@@H](C)O2)C2CC2)nn1-c1cccc(C(F)(F)F)c1` [Example 349] has an IC50 of 1.1 nM.
Compound `COC(=O)NCCCc1cc(C(C)N(C(=O)[C@H]2CNC[C@@H](C)O2)C2CC2)nn1-c1ccccc1C(F)(F)F` (stereo partly drawn) [Example 350] has an IC50 of 1.9 nM.
Compound `COC(=O)NCCCc1cc([C@@H](C)N(C(=O)[C@H]2CNC[C@@H](C)O2)C2CC2)nn1-c1ccc(F)cc1` [Example 351] has an IC50 of 0.4 nM.
For `COC(=O)NCCCc1cc([C@@H](C)N(C(=O)[C@H]2CN[C@@H](C)CO2)C2CC2)cc(C2CC2)n1` [Example 352], the IC50 was 7.6 nM.
`COC(=O)NCCCn1cc([C@@H](C)N(C(=O)[C@H]2CN[C@@H](C)CO2)C2CC2)nc1-c1ccccc1` [Example 353] showed an IC50 of 0.4 nM.
With `COC(=O)NCCCc1cc([C@@H](C)N(C(=O)[C@H]2CNC[C@@H](C)O2)C2CC2)nn1-c1ccc(C(F)(F)F)cc1` [Example 354] the IC50 was 1.4 nM.
`COC(=O)NCCCc1cc([C@@H](C)N(C(=O)[C@H]2CN[C@@H](C)CO2)C2CC2)nn1-c1ccccc1` [Example 355] was tested, and the IC50 was 0.8 nM.
`COC(=O)NC/C=C/c1cc([C@@H](C)N(C(=O)[C@H]2CNC[C@@H](C)O2)C2CC2)nn1-c1ccc(C(F)(F)F)cc1` [Example 356] showed an IC50 of 5.1 nM.
For `COC(=O)NC/C=C/c1cc([C@@H](C)N(C(=O)[C@H]2CNCCO2)C2CC2)nn1-c1ccccc1` [Example 357], the IC50 was 3.5 nM.
For `COC(=O)NC/C=C/c1cc([C@@H](C)N(C(=O)[C@H]2CN[C@@H](C)CO2)C2CC2)nn1-c1ccccc1` [Example 358], the IC50 was 5.7 nM.
Compound `COC(=O)NCCCc1cc([C@@H](C)N(C(=O)[C@H]2CNC[C@@H](C)O2)C2CC2)nn1-c1cccc(F)c1` [Example 359] has an IC50 of 0.3 nM.
For `COC(=O)NCCCc1nc(C(C)N(C(=O)[C@H]2CNCCO2)C2CC2)nn1-c1cccc(Cl)c1` (stereo partly drawn) [Example 360], the IC50 was 7.6 nM.
For `COCCCOc1cc([C@@H](C)N(C(=O)[C@H]2CNCCO2)C2CC2)nn1-c1ccccc1` [Example 361], the IC50 was 0.8 nM.
`COC(=O)NCCCc1cc([C@@H](C)N(C(=O)[C@H]2CNCCO2)C2CC2)cc(N(C)S(C)(=O)=O)n1` [Example 362] showed an IC50 of 5 nM.
With `COC(=O)NCCCc1nc([C@@H](C)N(C(=O)[C@H]2CNCCO2)C2CC2)nn1-c1cccc(Cl)c1` [Example 365] the IC50 was 3.5 nM.
`COCCOc1cc([C@@H](C)N(C(=O)[C@H]2CNC[C@@H](C)O2)C2CC2)cc(CCCNC(=O)OC)n1` [Example 366] showed an IC50 of 0.7 nM.
Work on `COC(=O)NCCCc1cc([C@@H](C)N(C(=O)[C@H]2CNC[C@@H](C(F)(F)F)O2)C2CC2)nn1-c1ccccc1` [Example 367] yielded an IC50 of 1.7 nM.
For `COC(=O)NCCCc1sc([C@@H](C)N(C(=O)[C@H]2CN[C@@H](C)CO2)C2CC2)nc1-c1cccc(Cl)c1` [Example 368], the IC50 was 8.4 nM.
In the case of `COC(=O)NCCCc1cc([C@@H](C)N(C(=O)[C@H]2CNC[C@@H](CF)O2)C2CC2)nn1-c1ccccc1` [Example 369], the IC50 is reported as 1.5 nM.
`COC(=O)NCCCc1cc([C@@H](C)N(C(=O)[C@H]2CN[C@@H](C)CO2)C2CC2)nn1-c1cccc(F)c1` [Example 370] showed an IC50 of 1.7 nM.
`COC(=O)NCCCc1cc([C@@H](C)N(C(=O)[C@H]2CN[C@@H](C)CO2)C2CC2)nn1-c1ccc(F)cc1` [Example 371] gave an IC50 of 1 nM.
`COC(=O)NCCCc1cc([C@@H](C)N(C(=O)[C@H]2CN[C@@H](CF)CO2)C2CC2)nn1-c1ccc(F)cc1` [Example 372] showed an IC50 of 6 nM.
Compound `COCCCc1cc([C@@H](C)N(C(=O)[C@H]2CNC[C@@H](C)O2)C2CC2)cc(CCCNC(=O)OC)n1` [Example 373] has an IC50 of 0.8 nM.
`COC(=O)NCCCc1cc([C@@H](C)N(C(=O)[C@H]2CNCCO2)C2CC2)nc(C2CC2)n1` [Example 374] was tested, and the IC50 was 5.4 nM.
`COC(=O)NCCCc1nc(OC)cc([C@@H](C)N(C(=O)[C@H]2CNC[C@@H](C)O2)C2CC2)n1` [Example 375] showed an IC50 of 1.3 nM.
With `COC(=O)NCCCc1nc([C@@H](C)N(C(=O)[C@H]2CNC[C@@H](C)O2)C2CC2)sc1-c1cccc(Cl)c1` [Example 376] the IC50 was 4.7 nM.
`COC(=O)NCCCc1nc([C@@H](C)N(C(=O)[C@H]2CNCCO2)C2CC2)sc1-c1cccc(Cl)c1` [Example 377] showed an IC50 of 2.4 nM.
For `COC[C@@H]1CNC[C@H](C(=O)N(C2CC2)[C@H](C)c2nc(CCCNC(=O)OC)c(-c3cccc(Cl)c3)s2)O1` [Example 378], the IC50 was 3.5 nM.
Work on `CCc1cc([C@@H](C)N(C(=O)[C@H]2CNCCO2)C2CC2)nc2c1cnn2CCCOC` [Example 379] yielded an IC50 of 8.9 nM.
Compound `CCc1cc([C@@H](C)N(C(=O)[C@H]2CNC[C@@H](C)O2)C2CC2)nc2c1cnn2CCCOC` [Example 380] has an IC50 of 2.6 nM.
For `COC[C@@H]1CNC[C@H](C(=O)N(C2CC2)[C@H](C)c2nc(CCCNC(=O)OC)n(-c3cccc(Cl)c3)n2)O1` [Example 381], the IC50 was 1.7 nM.
